In patent publication US8877754B2, “Compounds, pharmaceutical compositions and uses thereof” (Boehringer Ingelheim International GmbH, priority 2010, dated 2014):

Biological target: T1, human ACC2 (Homo sapiens, UniProt O00763)
T1 construct: made in house; host or cells: insect cells, baculoviral expression system
Test: ACC2 assay, spectrophotometric 384 well assay (NADH-linked, coupled lactate dehydrogenase/pyruvate kinase)
Format: biochemical
Settings: hACC2 construct lacking the 128 N-terminal amino acids; 25° C., 340 nm, 15 minutes
Procedure: Spectrophotometric 384 Well Assay
Malonyl CoA formation by acetyl CoA carboxylases is stoichometrically linked to the consumption of ATP. ACC2 activity is measured in a NADH-linked kinetic method measuring ADP generated during the ACC reaction using a coupled lactate dehydrogenase/pyruvate kinase reaction.
For biological testing, a human ACC2 construct which lacks the 128 amino acids at the N-terminus for increased solubility (nt 385-6966 in Genbank entry AJ575592) is cloned. The protein is then expressed in insect cells using a baculoviral expression system. Protein purification is performed by anion exchange.
All compounds are dissolved in dimethyl sulfoxide (DMSO) to a concentration of 10 mM.
Assay reactions are then carried out in 384-well plates, with hACC2 in an appropriate dilution and at final assay concentrations (f.c.) of 100 mM Tris (pH 7.5), 10 mM trisodium citrate, 25 mM KHCO3, 10 mM MgCl2, 0.5 mg/mL BSA, 3.75 mM reduced L-glutathione, 15 U/mL lactate dehydrogenase, 0.5 mM phosphoenolpyruvate, 15 U/mL pyruvate kinase, compounds at different concentrations at final DMSO concentrations of 1%.
The enzymatic reaction is then started by addition of a mixture of NADH, acetyl Coenzyme A (both 200 μM f.c.) and ATP (500 uM f.c.). The decrease of the optical density (slope S) is then determined at 25° C. at a wavelength of 340 nm over 15 minutes in a spectrophotometric reader.
Each assay microtiter plate contains wells with vehicle instead of compound as controls for the non-inhibited enzyme (100% CTL; ‘HIGH’) and wells without acetyl-CoA as controls for non-specific NADH degradation (0% CTL; ‘LOW’). The slope S is used for calculation of % CTL=(S(compound)−S(‘LOW’))/(S(‘HIGH’)—S(‘LOW’))*100. Compounds will give values between 100% CTL (no inhibition) and 0% CTL (complete inhibition).
For IC50 value determination, the sample slope in the presence of the test compound after subtraction of the low controls (S(compound)−S(‘LOW’)) are used.
An IC50 value is derived from the compound slopes at different dosages after subtraction of the low controls (S(compound)−S(‘LOW’)) by non-linear regression curve fitting (equation y=(A+((B−A)/(1+((C/x)^D))))).

T1 sequence (O00763 129-2458 limits assumed): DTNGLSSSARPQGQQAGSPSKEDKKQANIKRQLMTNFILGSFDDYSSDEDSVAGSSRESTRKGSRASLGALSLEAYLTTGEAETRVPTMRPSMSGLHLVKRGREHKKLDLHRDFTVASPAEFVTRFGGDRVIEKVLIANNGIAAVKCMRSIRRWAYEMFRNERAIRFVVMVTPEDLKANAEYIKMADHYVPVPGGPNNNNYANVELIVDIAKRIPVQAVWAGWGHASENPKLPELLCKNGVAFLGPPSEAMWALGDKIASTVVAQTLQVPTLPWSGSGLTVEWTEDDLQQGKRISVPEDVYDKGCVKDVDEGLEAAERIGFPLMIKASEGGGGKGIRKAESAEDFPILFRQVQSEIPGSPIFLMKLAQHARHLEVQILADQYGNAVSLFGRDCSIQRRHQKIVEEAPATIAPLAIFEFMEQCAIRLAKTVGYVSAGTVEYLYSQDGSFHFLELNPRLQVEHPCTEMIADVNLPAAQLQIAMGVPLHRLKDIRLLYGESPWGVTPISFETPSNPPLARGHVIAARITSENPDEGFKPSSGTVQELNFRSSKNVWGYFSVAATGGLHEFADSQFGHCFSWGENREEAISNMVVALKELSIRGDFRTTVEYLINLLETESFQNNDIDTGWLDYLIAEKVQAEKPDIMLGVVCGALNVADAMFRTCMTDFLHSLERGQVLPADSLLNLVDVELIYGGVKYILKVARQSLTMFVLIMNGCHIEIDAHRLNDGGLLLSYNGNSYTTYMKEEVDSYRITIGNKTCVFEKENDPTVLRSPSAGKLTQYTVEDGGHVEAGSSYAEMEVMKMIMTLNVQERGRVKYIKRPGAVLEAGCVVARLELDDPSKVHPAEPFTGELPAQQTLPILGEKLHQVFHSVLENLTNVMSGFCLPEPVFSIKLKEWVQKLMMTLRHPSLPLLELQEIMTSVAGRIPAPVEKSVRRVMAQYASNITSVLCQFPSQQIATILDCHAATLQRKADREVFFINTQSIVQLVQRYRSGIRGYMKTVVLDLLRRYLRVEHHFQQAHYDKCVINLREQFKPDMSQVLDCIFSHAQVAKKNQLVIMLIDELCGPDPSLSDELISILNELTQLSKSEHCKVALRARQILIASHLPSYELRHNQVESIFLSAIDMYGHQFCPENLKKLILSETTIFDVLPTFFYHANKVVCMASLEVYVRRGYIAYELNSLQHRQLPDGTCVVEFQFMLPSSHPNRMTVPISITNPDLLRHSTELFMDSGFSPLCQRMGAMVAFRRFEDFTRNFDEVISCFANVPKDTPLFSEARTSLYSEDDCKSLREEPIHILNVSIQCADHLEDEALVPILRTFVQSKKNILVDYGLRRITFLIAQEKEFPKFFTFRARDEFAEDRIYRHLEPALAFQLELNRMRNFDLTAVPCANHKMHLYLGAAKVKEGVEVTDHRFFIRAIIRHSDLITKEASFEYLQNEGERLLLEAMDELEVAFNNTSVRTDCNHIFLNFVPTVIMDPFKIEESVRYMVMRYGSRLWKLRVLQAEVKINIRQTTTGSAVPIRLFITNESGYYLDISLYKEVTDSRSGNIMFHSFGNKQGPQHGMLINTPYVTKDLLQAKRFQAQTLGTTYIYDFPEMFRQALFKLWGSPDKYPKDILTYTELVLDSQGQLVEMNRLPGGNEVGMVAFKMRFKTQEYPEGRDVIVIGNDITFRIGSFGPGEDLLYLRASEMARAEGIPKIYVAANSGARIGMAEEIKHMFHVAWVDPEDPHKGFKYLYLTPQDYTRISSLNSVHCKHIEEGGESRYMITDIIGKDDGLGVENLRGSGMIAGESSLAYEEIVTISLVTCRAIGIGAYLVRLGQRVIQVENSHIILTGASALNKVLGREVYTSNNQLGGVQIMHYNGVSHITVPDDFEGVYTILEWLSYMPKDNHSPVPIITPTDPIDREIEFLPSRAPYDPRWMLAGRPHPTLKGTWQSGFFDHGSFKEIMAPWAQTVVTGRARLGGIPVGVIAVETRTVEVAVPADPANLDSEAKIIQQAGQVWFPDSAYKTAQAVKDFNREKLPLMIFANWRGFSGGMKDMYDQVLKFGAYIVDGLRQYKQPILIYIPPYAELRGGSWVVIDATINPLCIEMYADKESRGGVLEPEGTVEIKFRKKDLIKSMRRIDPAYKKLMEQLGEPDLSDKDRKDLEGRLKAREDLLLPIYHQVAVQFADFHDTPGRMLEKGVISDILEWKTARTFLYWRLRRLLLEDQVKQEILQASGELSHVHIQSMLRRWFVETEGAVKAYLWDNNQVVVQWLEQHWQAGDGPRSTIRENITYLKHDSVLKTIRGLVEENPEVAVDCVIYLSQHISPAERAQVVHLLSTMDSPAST

`CCOc1ccc(C#Cc2ccc(C(C)C(=O)Nc3ccn[nH]3)cc2)cc1` (stereo not drawn) [Example 6.20] was tested. Which IC50 did it give?
Its IC50 is 8.3 µM.

With `CCNC(=O)C(C)c1ccc(C#Cc2ccnc(OC(C)C)c2)cc1` (stereo not drawn) [Example 7.44] as the molecule, how does the IC50 read?
Its IC50 is 0.25 µM.

For `CCOc1ccc(C#Cc2ccc(C(C)C(=O)NC(C)CC)cc2)cc1` (stereo not drawn) [Example 1.13], which IC50 is on record?
The IC50 was 2.8 µM.

For `CCOc1ccc(C#Cc2ccc(C(C)C(=O)Nc3ccncn3)cc2)cc1` (stereo not drawn) [Example 6.2], which IC50 is on record?
The IC50 was 0.52 µM.

`CCNC(=O)C(C)c1ccc(C#Cc2ccc(OCC3CCOC3)cc2)cc1` (stereo not drawn) [Example 5.6] was tested. Which IC50 did it give?
The IC50 was 0.23 µM.

For `CCNC(=O)C(C)c1ccc(C#Cc2ccc(SC)cc2)cc1` (stereo not drawn) [Example 7.7], which IC50 is on record?
The IC50 was 0.25 µM.

`CCNC(=O)C(C)c1ccc(C#Cc2ccc(OCC3CC3)cc2)cc1` (stereo not drawn) [Example 7.4] was tested. Which IC50 did it give?
The IC50 was 0.15 µM.

With `CCCOc1ccc(C#Cc2ccc(C(C)C(=O)NCC)cc2)cc1` (stereo not drawn) [Example 7.25] as the molecule, how does the IC50 read?
Its IC50 is 0.07 µM.

Which IC50 does the source give for `CCOc1ccc(C#Cc2ccc(C(C)C(=O)Nc3nnc(C)o3)cc2)cc1` (stereo not drawn) [Example 6.3] here?
The IC50 was 0.83 µM.

For `CCCOc1ccc(C#Cc2ccc(C(C)C(=O)NCC)cc2)c(OC)c1` (stereo not drawn) [Example 7.41], which IC50 is on record?
The IC50 was 0.51 µM.

How did the IC50 turn out when `CCCc1ccc(C#Cc2ccc(C(C)C(=O)NCC)cc2)cc1` (stereo not drawn) [Example 7.22] was run?
Its IC50 is 0.33 µM.

With `CCNC(=O)C(C)c1ccc(C#Cc2ccc(CNc3ccccn3)cc2)cc1` (stereo not drawn) [Example 7.16] as the molecule, how does the IC50 read?
The IC50 was 1.5 µM.

For `CCOc1ccc(C#Cc2ccc(C(C)C(=O)Nc3ccccc3)cc2)cc1` (stereo not drawn) [Example 1.15], which IC50 is on record?
Its IC50 is 0.08 µM.

How did the IC50 turn out when `CCNC(=O)C(C)c1ccc(C#Cc2ccc(OC(F)F)cc2)cc1` (stereo not drawn) [Example 7.6] was run?
The IC50 was 4.3 µM.

With `CCNC(=O)C(C)c1ccc(C#Cc2ccc(OCC(C)C)cc2)cc1` (stereo not drawn) [Example 5.3] as the molecule, how does the IC50 read?
Its IC50 is 0.24 µM.

For `CCCCOc1cc(C#Cc2ccc(C(C)C(=O)NCC)cc2)ccn1` (stereo not drawn) [Example 7.43], which IC50 is on record?
Its IC50 is 0.17 µM.

For `CCOc1ccc(C#Cc2ccc(C(C)C(=O)NC3COC3)cc2)cc1` (stereo not drawn) [Example 6.8], which IC50 is on record?
Its IC50 is 0.62 µM.

Which IC50 does the source give for `CCOc1ccc(C#Cc2ccc(C(C)C(=O)NC3CCOC3)cc2)cc1` (stereo not drawn) [Example 6.9] here?
Its IC50 is 1.8 µM.

How did the IC50 turn out when `CCNC(=O)C(C)c1ccc(C#Cc2ccc(C(=O)Cn3cnc(C)c3)cc2)cc1` (stereo not drawn) [Example 7.21] was run?
Its IC50 is 22.5 µM.

With `CCNC(=O)C(C)c1ccc(C#Cc2ccc(OCCOCC)cc2)cc1` (stereo not drawn) [Example 5.4] as the molecule, how does the IC50 read?
Its IC50 is 1.1 µM.

For `CCNC(=O)C(C)c1ccc(C#Cc2cnc(N3CCC4(CC4)C3)nc2)cc1` (stereo not drawn) [Example 2.10], which IC50 is on record?
The IC50 was 2.3 µM.

Which IC50 does the source give for `CCNC(=O)C(C)c1ccc(C#Cc2ccc(OC(C)(C)C)cc2)cc1` (stereo not drawn) [Example 7.17] here?
The IC50 was 0.36 µM.

Which IC50 does the source give for `CCNC(=O)C(C)c1ccc(C#Cc2ccc(OC(C)C)cc2)cc1` (stereo not drawn) [Example 7.24] here?
The IC50 was 0.26 µM.

For `CCNC(=O)C(C)c1ccc(C#Cc2cncc(OC)c2)cc1` (stereo not drawn) [Example 7.14], which IC50 is on record?
The IC50 was 5 µM.

Which IC50 does the source give for `CCNC(=O)C(C)c1ccc(C#Cc2ccc(OC3CCCC3)nc2)cc1` (stereo not drawn) [Example 7.30] here?
The IC50 was 0.22 µM.

How did the IC50 turn out when `CCNC(=O)C(C)c1ccc(C#Cc2ccc(OCc3cncs3)cc2)cc1` (stereo not drawn) [Example 5.10] was run?
Its IC50 is 3.7 µM.

With `CCNC(=O)C(C)c1ccc(C#Cc2ccc(OCC3(C)COC3)cc2)cc1` (stereo not drawn) [Example 5.15] as the molecule, how does the IC50 read?
The IC50 was 2.7 µM.

`CCNC(=O)C(C)c1ccc(C#Cc2cnc(NCCF)nc2)cc1` (stereo not drawn) [Example 2.9] was tested. Which IC50 did it give?
The IC50 was 2.5 µM.

With `CCOc1ccc(C#Cc2ccc(C(C)C(=O)NCc3cnco3)cc2)cc1` (stereo not drawn) [Example 6.24] as the molecule, how does the IC50 read?
Its IC50 is 1.8 µM.

For `CCNC(=O)C(C)c1ccc(C#Cc2cc(OCC)ncn2)cc1` (stereo not drawn) [Example 7.13], which IC50 is on record?
Its IC50 is 2 µM.

For `CCOc1ccc(C#Cc2ccc(C(C)C(=O)Nc3cc(C)[nH]n3)cc2)cc1` (stereo not drawn) [Example 6.21], which IC50 is on record?
The IC50 was 25.5 µM.

`CCCOc1ccc(C#Cc2ccc(C(C)(C)C(=O)NCC)cc2)cc1` [Example 1.8] was tested. Which IC50 did it give?
The IC50 was 2.4 µM.

`CCNC(=O)C(C)c1ccc(C#Cc2ccc(OCCn3cccc3)cc2)cc1` (stereo not drawn) [Example 5.7] was tested. Which IC50 did it give?
The IC50 was 0.17 µM.

`CCCOc1ccc(C#Cc2ccc(C(C)C(=O)NCC)cc2)c(C#N)c1` (stereo not drawn) [Example 7.39] was tested. Which IC50 did it give?
The IC50 was 1.2 µM.

`CCNC(=O)C(C)c1ccc(C#Cc2cnc(NC3CCC3)nc2)cc1` (stereo not drawn) [Example 2.12] was tested. Which IC50 did it give?
Its IC50 is 0.69 µM.

For `CCNC(=O)C(C)c1ccc(C#Cc2ccc(OCC)cc2)cc1` (stereo not drawn) [Example 1.5], which IC50 is on record?
Its IC50 is 0.09 µM.

For `CCNC(=O)C(C)c1ccc(C#Cc2cnc(NCc3ccncc3)nc2)cc1` (stereo not drawn) [Example 2.16], which IC50 is on record?
The IC50 was 7.4 µM.

How did the IC50 turn out when `CCOc1ccc(C#Cc2ccc(CC(=O)NC)cc2)cc1` [Example 1.6] was run?
The IC50 was 5.4 µM.

For `CCNC(=O)C(C)c1ccc(C#Cc2ccc3c(c2)C(=O)CC3)cc1` (stereo not drawn) [Example 7.18], which IC50 is on record?
Its IC50 is 2.2 µM.

Which IC50 does the source give for `CCNC(=O)C(C)c1ccc(C#Cc2cnc(NC3CC3)nc2)cc1` (stereo not drawn) [Example 2.4] here?
Its IC50 is 0.39 µM.

How did the IC50 turn out when `CCNC(=O)C(C)c1ccc(C#Cc2cnc(NC3CCCC3)nc2)cc1` (stereo not drawn) [Example 2.3] was run?
Its IC50 is 0.71 µM.

How did the IC50 turn out when `CCNC(=O)C(C)c1ccc(C#Cc2ccc(C(C)C)cc2)cc1` (stereo not drawn) [Example 7.1, N-Ethyl-2-[4-(4-isopropyl-phenylethynyl)-phenyl]-propionamide] was run?
The IC50 was 1.3 µM.

How did the IC50 turn out when `CCCOc1ccc(C#Cc2ccc(C(C)(C)C(=O)NC3CC3)cc2)cc1` [Example 1.14] was run?
The IC50 was 0.6 µM.

How did the IC50 turn out when `CCCCOc1ccc(C#Cc2ccc(C(C)C(=O)NCC)cc2)nn1` (stereo not drawn) [Example 7.37] was run?
Its IC50 is 3.2 µM.

For `CCNC(=O)C(C)c1ccc(C#Cc2ccc(OCC)nc2)cc1` (stereo not drawn) [Example 7.23], which IC50 is on record?
The IC50 was 0.56 µM.

How did the IC50 turn out when `CCCCn1ccc(C#Cc2ccc(C(C)C(=O)NCC)cc2)cc1=O` (stereo not drawn) [Example 7.35] was run?
Its IC50 is 2.1 µM.

Which IC50 does the source give for `CCOc1ccc(C#Cc2ccc(C(C)C(=O)NCc3ccn(C)n3)cc2)cc1` (stereo not drawn) [Example 6.22] here?
Its IC50 is 1.5 µM.

How did the IC50 turn out when `CCNC(=O)C(C)c1ccc(C#Cc2ccc(OC)c(OC)c2)cc1` (stereo not drawn) [Example 7.48] was run?
The IC50 was 25.7 µM.

How did the IC50 turn out when `CCOc1ccc(C#Cc2ccc(C(C)C(=O)Nc3cccnc3)cc2)cc1` (stereo not drawn) [Example 6.14] was run?
The IC50 was 0.24 µM.

For `CCOc1ccc(C#Cc2ccc(C(C)C(=O)N(C)C)cc2)cc1` (stereo not drawn) [Example 1.4], which IC50 is on record?
Its IC50 is 16.1 µM.

`CCOc1ccc(C#Cc2ccc(C(C)C(=O)NC3CCOCC3)cc2)cc1` (stereo not drawn) [Example 6.17] was tested. Which IC50 did it give?
The IC50 was 18.7 µM.

`CCNC(=O)C(C)c1ccc(C#Cc2cnc(OC)nc2OC)cc1` (stereo not drawn) [Example 7.5] was tested. Which IC50 did it give?
Its IC50 is 4.4 µM.

With `CCCNC(=O)C(C)c1ccc(C#Cc2ccc(OCC)cc2)cc1` (stereo not drawn) [Example 1.16] as the molecule, how does the IC50 read?
Its IC50 is 0.61 µM.

How did the IC50 turn out when `CCNC(=O)C(C)c1ccc(C#Cc2ccc(OC3CCOCC3)cc2)cc1` (stereo not drawn) [Example 5.2] was run?
The IC50 was 1.8 µM.

Which IC50 does the source give for `CCOc1ccc(C#Cc2ccc(C(C)C(=O)NCc3ccno3)cc2)cc1` (stereo not drawn) [Example 6.18] here?
The IC50 was 18.7 µM.

Which IC50 does the source give for `CCNC(=O)C(C)c1ccc(C#Cc2ccc3cccnc3c2)cc1` (stereo not drawn) [Example 7.8] here?
Its IC50 is 2.5 µM.

How did the IC50 turn out when `CCNC(=O)C(C)c1ccc(C#Cc2cnc(N3CCC3)nc2)cc1` (stereo not drawn) [Example 2.7] was run?
The IC50 was 3.7 µM.

`CCOc1ccc(C#Cc2ccc(C(C)C(=O)NCC(=O)OC)cc2)cc1` (stereo not drawn) [Example 1.18] was tested. Which IC50 did it give?
Its IC50 is 1.3 µM.

With `CCOc1ccc(C#Cc2ccc(C(C)C(=O)NC(C)(C)C#N)cc2)cc1` (stereo not drawn) [Example 6.26] as the molecule, how does the IC50 read?
The IC50 was 18.7 µM.

How did the IC50 turn out when `CCOc1ccc(C#Cc2ccc(C(C)C(=O)Nc3ccn[nH]3)cc2)cc1` (stereo not drawn) [Example 6.6] was run?
The IC50 was 3.6 µM.

For `CCNC(=O)C(C)c1ccc(C#Cc2ccc3c(c2)OCC3)cc1` (stereo not drawn) [Example 7.20], which IC50 is on record?
The IC50 was 0.5 µM.

How did the IC50 turn out when `CCNC(=O)C(C)c1ccc(C#Cc2ccc(OC(CC)COC)cc2)cc1` (stereo not drawn) [Example 5.16] was run?
Its IC50 is 1.4 µM.

`CCOc1ccc(C#Cc2ccc(C(C)C(=O)Nc3cc(C)on3)cc2)cc1` (stereo not drawn) [Example 6.16] was tested. Which IC50 did it give?
Its IC50 is 0.1 µM.
